Assay results as given in patent US8623899B2, “Bis-benzimidazole derivatives as hepatitis C virus inhibitors” (Janssen Research & Development Ireland, priority 2009, dated 2014).

Test system: HCV type 1b replicon in Huh-7 luc/neo (Huh-Luc) cells
Assay: HCV replicon assay (Huh-Luc, luciferase readout)
Format: cell-based
Details: Hepatitis C virus, Huh-7, 72 h, luciferase activity, incubation of three days, read-out: HCV-REP-HUH7LUC_EC50
Text: The compounds of formula (I) were examined for inhibitory activity in the HCV replicon. This cellular assay is based on a bicistronic expression construct, as described by Lohmann et al. (1999) Science vol. 285 pp. 110-113 with modifications described by Krieger et al. (2001) Journal of Virology 75: 4614-4624, in a multi-target screening strategy.
In essence, the method was as follows:
The assay utilized the stably transfected cell line Huh-7 luc/neo (hereafter referred to as Huh-Luc). This cell line harbors an RNA encoding a bicistronic expression construct comprising the wild type NS3-NS5B regions of HCV type 1b translated from an Internal Ribosome Entry Site (IRES) from encephalomyocarditis virus (EMCV), preceded by a reporter portion (FfL-luciferase), and a selectable marker portion (neo^R, neomycine phosphotransferase). The construct is flanked by 5′ and 3′ NTRs (non-translated regions) from HCV type 1b. Continued culture of the replicon cells in the presence of G418 (neo^R) is dependent on the replication of the HCV RNA. The stably transfected replicon cells that express HCV RNA, which replicates autonomously and to high levels, encoding inter alia luciferase, were used for screening the antiviral compounds.
The replicon cells were plated in 384 well plates in the presence of the test and control compounds which were added in various concentrations. Following an incubation of three days, HCV replication was measured by assaying luciferase activity (using standard luciferase assay substrates and reagents and a Perkin Elmer ViewLux™ ultraHTS microplate imager). Replicon cells in the control cultures have high luciferase expression in the absence of any inhibitor. The inhibitory activity of the compound on luciferase activity was monitored on the Huh-Luc cells, enabling a dose-response curve for each test compound. EC50 values were then calculated, which represent the amount of compound required to decrease the level of detected luciferase activity by 50%, or more specifically, to reduce the ability of the genetically linked HCV replicon RNA to replicate.

CCN(C1CC1)[C@@H](C(=O)N1CCC[C@H]1c1nc2ccc(-c3ccc(-c4ccc5nc([C@@H]6CCCN6C(=O)[C@@H](c6ccccc6)N(CC)C6CC6)[nH]c5c4)cc3)cc2[nH]1)c1ccccc1 [Compound 42]
EC50: 0.063 nM

COCC[C@H](NC(=O)OC)C(=O)N1CCC[C@H]1c1nc2ccc(-c3ccc(-c4ccc5nc([C@@H]6CCCN6C(=O)[C@H](CCOC)NC(=O)OC)[nH]c5c4)cc3)cc2[nH]1 [Compound 51]
EC50: 0.012 nM

O=C(c1ccc(F)cc1)N1CCC[C@H]1c1nc2ccc(-c3ccc(-c4ccc5nc([C@@H]6CCCN6C(=O)c6ccc(F)cc6)[nH]c5c4)cc3)cc2[nH]1 [Compound 27]
EC50: 240 nM

O=C(C(c1ccccc1)n1ccnc1)N1CCC[C@H]1c1nc2ccc(-c3ccc(-c4ccc5nc([C@@H]6CCCN6C(=O)C(c6ccccc6)n6ccnc6)[nH]c5c4)cc3)cc2[nH]1 (stereo partly drawn) [Compound 19]
EC50: 0.45 nM

CN(C)[C@@H](C(=O)N1CCC[C@H]1c1nc2ccc(-c3ccc(-c4ccc5nc([C@@H]6CCCN6C(=O)[C@@H](c6ccccc6)N(C)C)[nH]c5c4)cc3)cc2[nH]1)c1ccccc1 [Compound 36]
EC50: 0.073 nM

COC(=O)N[C@H](C(=O)N1CCC[C@H]1c1nc2ccc(-c3ccc(-c4ccc5nc([C@@H]6CCCN6C(=O)[C@@H](NC(=O)OC)C(C)C)[nH]c5c4)cc3)cc2[nH]1)C(C)C [Compound 30]
EC50: 0.006 nM

O=C([C@@H](c1ccccc1)N1CCOCC1)N1CCC[C@H]1c1nc2ccc(-c3ccc(-c4ccc5nc([C@@H]6CCCN6C(=O)[C@@H](c6ccccc6)N6CCOCC6)[nH]c5c4)cc3)cc2[nH]1 [Compound 46]
EC50: 0.022 nM

O=C(Cc1ccc2c(c1)OCO2)N1CCC[C@H]1c1nc2ccc(-c3ccc(-c4ccc5nc([C@@H]6CCCN6C(=O)Cc6ccc7c(c6)OCO7)[nH]c5c4)cc3)cc2[nH]1 [Compound 16]
EC50: 69 nM

CC(=O)N[C@@H](C(=O)N1CCC[C@H]1c1nc2ccc(-c3ccc(-c4ccc5nc([C@@H]6CCCN6C(=O)[C@H](NC(C)=O)c6ccccc6)[nH]c5c4)cc3)cc2[nH]1)c1ccccc1 [Compound 4]
EC50: 0.18 nM

O=C([C@@H](c1ccccc1)N1CCCCC1)N1CCC[C@H]1c1nc2ccc(-c3ccc(-c4ccc5nc([C@@H]6CCCN6C(=O)[C@@H](c6ccccc6)N6CCCCC6)[nH]c5c4)cc3)cc2[nH]1 [Compound 20]
EC50: 0.061 nM

CNC(=O)N[C@H](C(=O)N1CCC[C@H]1c1nc2ccc(-c3ccc(-c4ccc5nc([C@@H]6CCCN6C(=O)[C@@H](NC(=O)NC)C(C)C)[nH]c5c4)cc3)cc2[nH]1)C(C)C [Compound 23]
EC50: 0.57 nM

CN(C)C(C(=O)N1CCC[C@H]1c1nc2ccc(-c3ccc(-c4ccc5nc([C@@H]6CCCN6C(=O)C(c6ccc(Cl)cc6)N(C)C)[nH]c5c4)cc3)cc2[nH]1)c1ccc(Cl)cc1 (stereo partly drawn) [Compound 5]
EC50: 0.59 nM

O=C([C@H](O)c1ccccc1Cl)N1CCC[C@H]1c1nc2ccc(-c3ccc(-c4ccc5nc([C@@H]6CCCN6C(=O)[C@H](O)c6ccccc6Cl)[nH]c5c4)cc3)cc2[nH]1 [Compound 48]
EC50: 0.011 nM

CC(C)[C@@H](C(=O)N1CCC[C@H]1c1nc2ccc(-c3ccc(-c4ccc5nc([C@@H]6CCCN6C(=O)[C@H](C(C)C)N6CCCNC6=O)[nH]c5c4)cc3)cc2[nH]1)N1CCCNC1=O [Compound 54]
EC50: 0.065 nM

O=C(C(O)Cc1cccnc1)N1CCC[C@H]1c1nc2ccc(-c3ccc(-c4ccc5nc([C@@H]6CCCN6C(=O)C(O)Cc6cccnc6)[nH]c5c4)cc3)cc2[nH]1 (mixture of isomers) [Compound 35]
EC50: 22 nM

COC(=O)N[C@@H](CC(C)C)C(=O)N1CCC[C@H]1c1nc2ccc(-c3ccc(-c4ccc5nc([C@@H]6CCCN6C(=O)[C@H](CC(C)C)NC(=O)OC)[nH]c5c4)cc3)cc2[nH]1 [Compound 56]
EC50: 0.012 nM

O=C(c1ccccn1)N1CCC[C@H]1c1nc2ccc(-c3ccc(-c4ccc5nc([C@@H]6CCCN6C(=O)c6ccccn6)[nH]c5c4)cc3)cc2[nH]1 [Compound 25]
EC50: 1.7 nM

O=C([C@@H]1CCCO1)N1CCC[C@H]1c1nc2ccc(-c3ccc(-c4ccc5nc([C@@H]6CCCN6C(=O)[C@@H]6CCCO6)[nH]c5c4)cc3)cc2[nH]1 [Compound 14]
EC50: 36 nM

COC(=O)N[C@@H](C(=O)N1CCC[C@H]1c1nc2ccc(-c3ccc(-c4ccc5nc([C@@H]6CCCN6C(=O)[C@H](NC(=O)OC)C(C)C)[nH]c5c4)cc3)cc2[nH]1)C(C)C [Compound 32]
EC50: 6.9 nM

O=C(Cc1ccccc1OC(F)(F)F)N1CCC[C@H]1c1nc2ccc(-c3ccc(-c4ccc5nc([C@@H]6CCCN6C(=O)Cc6ccccc6OC(F)(F)F)[nH]c5c4)cc3)cc2[nH]1 [Compound 11]
EC50: 160 nM

CCN(CC)[C@@H](C(=O)N1CCC[C@H]1c1nc2ccc(-c3ccc(-c4ccc5nc([C@@H]6CCCN6C(=O)[C@@H](c6ccccc6)N(CC)CC)[nH]c5c4)cc3)cc2[nH]1)c1ccccc1 [Compound 17]
EC50: 0.03 nM

CC(C)(C)OC(=O)N[C@@H](C(=O)N1CCC[C@H]1c1nc2ccc(-c3ccc(-c4ccc5nc([C@@H]6CCCN6C(=O)[C@H](NC(=O)OC(C)(C)C)c6ccccc6)[nH]c5c4)cc3)cc2[nH]1)c1ccccc1 [Compound 38]
EC50: 0.014 nM

O=C(CCc1cccnc1)N1CCC[C@H]1c1nc2ccc(-c3ccc(-c4ccc5nc([C@@H]6CCCN6C(=O)CCc6cccnc6)[nH]c5c4)cc3)cc2[nH]1 [Compound 13]
EC50: 0.5 nM

O=C(Cc1cccnc1)N1CCC[C@H]1c1nc2ccc(-c3ccc(-c4ccc5nc([C@@H]6CCCN6C(=O)Cc6cccnc6)[nH]c5c4)cc3)cc2[nH]1 [Compound 12]
EC50: 0.15 nM

O=C(C(c1ccccc1)N1C2CCC1CC2)N1CCC[C@H]1c1nc2ccc(-c3ccc(-c4ccc5nc([C@@H]6CCCN6C(=O)C(c6ccccc6)N6C7CCC6CC7)[nH]c5c4)cc3)cc2[nH]1 (mixture of isomers) [Compound 43]
EC50: 3.2 nM

CCC(=O)N[C@@H](C(=O)N1CCC[C@H]1c1nc2ccc(-c3ccc(-c4ccc5nc([C@@H]6CCCN6C(=O)[C@H](NC(=O)CC)c6ccccc6)[nH]c5c4)cc3)cc2[nH]1)c1ccccc1 [Compound 22]
EC50: 0.034 nM

O=C([C@H](O)c1cccc(Cl)c1)N1CCC[C@H]1c1nc2ccc(-c3ccc(-c4ccc5nc([C@@H]6CCCN6C(=O)[C@H](O)c6cccc(Cl)c6)[nH]c5c4)cc3)cc2[nH]1 [Compound 49]
EC50: 0.027 nM

COc1c(F)cc(CC(=O)N2CCC[C@H]2c2nc3ccc(-c4ccc(-c5ccc6nc([C@@H]7CCCN7C(=O)Cc7cc(F)c(OC)c(F)c7)[nH]c6c5)cc4)cc3[nH]2)cc1F [Compound 10]
EC50: 130 nM

COC(=O)N[C@H](C(=O)N1CCC[C@H]1c1nc2ccc(-c3ccc(-c4ccc5nc([C@@H]6CCCN6C(=O)[C@@H](NC(=O)OC)C(C)(C)C)[nH]c5c4)cc3)cc2[nH]1)C(C)(C)C [Compound 37]
EC50: 0.01 nM

O=C(C(=O)N1CCC[C@H]1c1nc2ccc(-c3ccc(-c4ccc5nc([C@@H]6CCCN6C(=O)C(=O)c6ccccc6)[nH]c5c4)cc3)cc2[nH]1)c1ccccc1 [Compound 15]
EC50: 40 nM

O=C(c1ccoc1)N1CCC[C@H]1c1nc2ccc(-c3ccc(-c4ccc5nc([C@@H]6CCCN6C(=O)c6ccoc6)[nH]c5c4)cc3)cc2[nH]1 [Compound 21]
EC50: 58 nM

O=C(CCc1ccccc1F)N1CCC[C@H]1c1nc2ccc(-c3ccc(-c4ccc5nc([C@@H]6CCCN6C(=O)CCc6ccccc6F)[nH]c5c4)cc3)cc2[nH]1 [Compound 8]
EC50: 160 nM

O=C(Cc1ccccc1)N1CCC[C@H]1c1nc2ccc(-c3ccc(-c4ccc5nc([C@@H]6CCCN6C(=O)Cc6ccccc6)[nH]c5c4)cc3)cc2[nH]1 [Compound 1]
EC50: 0.1 nM

CC(C)[C@@H](C(=O)N1CCC[C@H]1c1nc2ccc(-c3ccc(-c4ccc5nc([C@@H]6CCCN6C(=O)[C@H](C(C)C)N(C)C)[nH]c5c4)cc3)cc2[nH]1)N(C)C [Compound 28]
EC50: 70 nM

O=C(c1cccnc1)N1CCC[C@H]1c1nc2ccc(-c3ccc(-c4ccc5nc([C@@H]6CCCN6C(=O)c6cccnc6)[nH]c5c4)cc3)cc2[nH]1 [Compound 31]
EC50: 280 nM

O=C(C(Nc1ccccc1)c1ccc(Cl)cc1)N1CCC[C@H]1c1nc2ccc(-c3ccc(-c4ccc5nc([C@@H]6CCCN6C(=O)C(Nc6ccccc6)c6ccc(Cl)cc6)[nH]c5c4)cc3)cc2[nH]1 (mixture of isomers) [Compound 47]
EC50: 1.5 nM

CC(C)C[C@@H](C(=O)N1CCC[C@H]1c1nc2ccc(-c3ccc(-c4ccc5nc([C@@H]6CCCN6C(=O)[C@H](CC(C)C)N(C)C)[nH]c5c4)cc3)cc2[nH]1)N(C)C [Compound 26]
EC50: 76 nM

CC(C)OC(=O)N[C@H](C(=O)N1CCC[C@H]1c1nc2ccc(-c3ccc(-c4ccc5nc([C@@H]6CCCN6C(=O)[C@@H](NC(=O)OC(C)C)C(C)C)[nH]c5c4)cc3)cc2[nH]1)C(C)C [Compound 52]
EC50: > 98 nM

COC(=O)NC1(C(=O)N2CCC[C@H]2c2nc3ccc(-c4ccc(-c5ccc6nc([C@@H]7CCCN7C(=O)C7(NC(=O)OC)CC7)[nH]c6c5)cc4)cc3[nH]2)CC1 [Compound 9]
EC50: 1 nM
